Test results from patent US5643873A, “Peptides and compounds that bind selectins including endothelial leukocyte adhesion molecule 1” (Affymax Technologies N.V., priority 1994, dated 1997).
Several values for one entry are separate records, joined by “and”; a condition that tells them apart may be missing. Equal values may be shown once. Square brackets hold non-standard residues; d marks the D form. Ends that are not written are not given here. Peptide text beside a SMILES is read from it. Nle = CCCC[C@H](N)C(=O)O

Target: T1, E-selectin (Homo sapiens, UniProt P16581)
T1 sequence (P16581 22-554): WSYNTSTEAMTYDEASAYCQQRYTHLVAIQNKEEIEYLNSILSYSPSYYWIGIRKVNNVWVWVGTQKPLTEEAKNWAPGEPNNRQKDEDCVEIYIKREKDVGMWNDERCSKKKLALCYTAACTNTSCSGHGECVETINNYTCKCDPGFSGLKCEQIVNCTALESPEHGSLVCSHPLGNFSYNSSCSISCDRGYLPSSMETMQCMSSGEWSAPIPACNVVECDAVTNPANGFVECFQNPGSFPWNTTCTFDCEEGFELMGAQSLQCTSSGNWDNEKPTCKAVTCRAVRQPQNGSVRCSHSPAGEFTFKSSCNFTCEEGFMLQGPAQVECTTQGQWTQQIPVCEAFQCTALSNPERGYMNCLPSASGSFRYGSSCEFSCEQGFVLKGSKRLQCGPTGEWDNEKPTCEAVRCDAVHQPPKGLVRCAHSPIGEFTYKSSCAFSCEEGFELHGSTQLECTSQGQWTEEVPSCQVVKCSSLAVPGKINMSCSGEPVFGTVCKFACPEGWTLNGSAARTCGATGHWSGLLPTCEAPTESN
Experiment: HL60 cell adhesion assay (labeled HL60 cells adhering to immobilized E-selectin)
Type: cell-based
Set-up: truncated form comprising the complete extracellular domain (amino acids 1 through 554); made in house
Details: concentration reducing by 50% the binding of HL60 cells to immobilized E-selectin
Experimental: By comparing test wells with control wells (no receptor), one can determine whether a peptide binds to E-selectin specifically. […] In this regard, HL60 cells are known to contain surface glycoconjugates which bind to E-selectin.
Peptides that block the binding of labeled HL60 cells to E-selectin are then evaluated to determine their IC50 -HL60 in the manner also specified in Example 1.
The assay requires HL60 cells labeled with tritiated thymidine. To label the cells, about 10 million HL60 cells are collected by centrifugation (2500 RPM for 3 minutes) and resuspended in 15 mL of DMEM/F12 plus 5% fetal calf serum containing 2 μCi/mL of tritiated thymidine (Amersham). The cells are then placed in a T75 flask and incubated at 37° C. for 24 hours. The cells are then collected by centrifugation, washed twice with RPMI/HEPES/0.1% FCS, and resuspended in the same solution at a concentration of about one to two million cells per mL. About 100 μL of this cell preparation are used per well of a 96-well microtiter dish in the assay.
The wells of the microtiter dish were first coated with the anti-receptor immobilizing antibody, an anti-HPAP-tail antibody, using about 2.5 μg of antibody per well. […]
After the test compound incubation period, 100 μL of labeled HL60 cells were added to each well, and the microtiter plate was incubated at 4° C. for 30 minutes. […] After this incubation, aliquots were removed from each well and placed in scintillation vials; scintillation fluid was added to each vial; and the radioactivity in each aliquot was quantitated by liquid scintillation counting. […]
The concentration of any peptide or peptide mimetic required to reduce by 50% the binding of HL60 cells to E-selectin as per the assay of Example 1 is determined by the following procedure. […] (SEQ ID NO 23), was determined. […]

IC50	Compound
< 10000 nM and 10000 nM	DITWDQLWDLMK
50000 nM and 100000 nM and ~50000 nM	HITWDQLWNVMN

Same assay, conditions: peptide at 200 μM, FIG. 1

blocking of HL60 cell binding that occurred in the absence of added compound	Compound
over 80%	HITWDQLWNVMN

Target: T1, E-selectin
Experiment: IC50-standard competitive binding assay (radiolabeled standard peptide on immobilized E-selectin)
Set-up: truncated form comprising the complete extracellular domain (amino acids 1 through 554); made in house; a baculovirus soluble form is also mentioned as an option
Details: inhibits 50% of binding of radiolabeled standard […] to E-selectin
Text: This latter peptide has strong binding affinity to E-selectin and, accordingly, was used as a standard in a competitive binding assay with candidate peptides and peptide mimetics in order to determine relative binding affinities for E-selectin.
This example measures the concentration of peptide or peptide mimetic required to inhibit 50% of the binding of a radiolabeled standard to E-selectin and the resulting IC50 value is referred to as the "IC50 -standard". In this example, the standard corresponds to the synthetic peptide […] (SEQ ID NO 114) which comprises a known initial seven amino acid group which is a substrate for protein kinase A followed by a 2 amino acid spacer and a 12 amino acid sequence which corresponds to the peptide identified by SEQ ID NO 3 which has an IC50 -HL60 of 10 μM. The peptide is radiolabeled by phosphorylation using either […] or ^33 P phosphate by conventional methods via the protein kinase A. The example is a competitive assay in which 6.5 picograms at 1400 Ci/mmol (65000 cpm) of radiolabelled standard (1400 Ci/mmol) is combined with a titered amount of candidate peptide or peptide mimetic in a constant volume of 30 μL. The combined solution is then added to E-selectin immobilized onto a solid surface in the manner described above. The resulting mixture is then incubated for about 120 minutes to permit equilibrium binding to be achieved. Afterwards, unbound materials are separated from bound materials by conventional methods (e.g., washing) and the amount of the […] bound to E-selectin is determined by scintillation counting. The assay is repeated over several concentrations of candidate peptide or peptide mimetic and the results are entered into a graph whose y axis is the amount of radiolabeled standard bound to E-selectin (measured in cpm) and the x axis is the amount of candidate peptide or peptide mimetic. The results are graphically extrapolated to determine the concentration at which the peptide or peptide mimetic will reduce by 50% the amount of radiolabeled standard bound to E-selectin. This concentration is taken as the IC50 -standard for that peptide or peptide mimetic.

Compound	IC50 [nM]
CCCC[C@H](NC(=O)[C@H](CC(C)C)NC(=O)[C@H](CC(=O)O)NC(=O)[C@H](Cc1c[nH]c2ccccc12)NC(=O)[C@H](CC(C)C)NC(=O)[C@H](CCC(N)=O)NC(=O)[C@H](CC(=O)O)NC(=O)[C@H](Cc1c[nH]c2ccccc12)NC(=O)[C@@H](NC(=O)[C@@H](NC(=O)[C@@H](N)CC(=O)O)[C@@H](C)CC)[C@@H](C)O)C(=O)N[C@@H](CCCCN)C(=O)O (H-DITWDQLWDL[Nle]K-OH)	23
CC[C@H](C)[C@H](NC(=O)[C@@H](N)CC(=O)O)C(=O)N[C@H](C(=O)N[C@@H](Cc1c[nH]c2ccccc12)C(=O)N[C@H](CC(=O)O)C(=O)N[C@@H](CCC(N)=O)C(=O)N[C@@H](CC(C)C)C(=O)N[C@@H](Cc1c[nH]c2ccccc12)C(=O)N[C@@H](CC(=O)O)C(=O)N[C@@H](CC(C)C)C(=O)N[C@@H](CCSC)C(=O)N[C@@H](CCCCN)C(=O)O)[C@@H](C)O (H-DITW[dD]QLWDLMK-OH)	34
CC[C@H](C)[C@H](NC(=O)[C@@H](N)CC(=O)O)C(=O)N[C@@H](C(=O)N[C@@H](Cc1c[nH]c2ccccc12)C(=O)N[C@@H](CC(=O)O)C(=O)N[C@@H](CCC(N)=O)C(=O)N[C@@H](CC(C)C)C(=O)N[C@@H](Cc1c[nH]c2ccccc12)C(=O)N[C@@H](CC(=O)O)C(=O)N[C@@H](CC(C)C)C(=O)N[C@@H](CCSC)C(=O)N[C@@H](CCCCN)C(=O)O)[C@H](C)O (H-DI[dT]WDQLWDLMK-OH)	2700
CC[C@@H](C)[C@@H](NC(=O)[C@@H](N)CC(=O)O)C(=O)N[C@H](C(=O)N[C@@H](Cc1c[nH]c2ccccc12)C(=O)N[C@@H](CC(=O)O)C(=O)N[C@@H](CCC(N)=O)C(=O)N[C@@H](CC(C)C)C(=O)N[C@@H](Cc1c[nH]c2ccccc12)C(=O)N[C@@H](CC(=O)O)C(=O)N[C@@H](CC(C)C)C(=O)N[C@@H](CCSC)C(=O)N[C@@H](CCCCN)C(=O)O)[C@@H](C)O (H-D[dI]TWDQLWDLMK-OH)	27
CCCC[C@H](NC(=O)[C@H](CC(C)C)NC(=O)[C@H](CC(=O)O)NC(=O)[C@H](Cc1c[nH]c2ccccc12)NC(=O)[C@H](CC(C)C)NC(=O)[C@H](CCC(N)=O)NC(=O)[C@H](CC(=O)O)NC(=O)[C@H](Cc1c[nH]c2ccccc12)NC(=O)[C@@H](NC(=O)[C@@H](NC(=O)[C@@H](N)CCC(N)=O)[C@@H](C)CC)[C@@H](C)O)C(=O)N[C@@H](CCCCN)C(=O)O (H-QITWDQLWDL[Nle]K-OH)	65
CC[C@H](C)[C@H](NC(=O)[C@H](N)CC(=O)O)C(=O)N[C@H](C(=O)N[C@@H](Cc1c[nH]c2ccccc12)C(=O)N[C@@H](CC(=O)O)C(=O)N[C@@H](CCC(N)=O)C(=O)N[C@@H](CC(C)C)C(=O)N[C@@H](Cc1c[nH]c2ccccc12)C(=O)N[C@@H](CC(=O)O)C(=O)N[C@@H](CC(C)C)C(=O)N[C@@H](CCSC)C(=O)N[C@@H](CCCCN)C(=O)O)[C@@H](C)O (H-[dD]ITWDQLWDLMK-OH)	25
AEKWDQLWHVMNPAESQ	65
DITWDQLWDLMK	3
DITWDQLWDLMK-NH2	22
HITWDQLWRIMT	28
RNMSWLELWEHMK	35

Continued, values first:

IC50 [nM]	Compound
33000	CC[C@H](C)[C@H](NC(=O)[C@@H](N)CC(=O)O)C(=O)N[C@H](C(=O)N[C@@H](Cc1c[nH]c2ccccc12)C(=O)N[C@@H](CC(=O)O)C(=O)N[C@@H](CCC(N)=O)C(=O)N[C@@H](CC(C)C)C(=O)N[C@@H](Cc1c[nH]c2ccccc12)C(=O)N[C@@H](CC(=O)O)C(=O)N[C@H](CC(C)C)C(=O)N[C@@H](CCSC)C(=O)N[C@@H](CCCCN)C(=O)O)[C@@H](C)O (H-DITWDQLWD[dL]MK-OH)
1000	CC[C@H](C)[C@H](NC(=O)[C@@H](N)CC(=O)O)C(=O)N[C@H](C(=O)N[C@@H](Cc1c[nH]c2ccccc12)C(=O)N[C@@H](CC(=O)O)C(=O)N[C@@H](CCC(N)=O)C(=O)N[C@@H](CC(C)C)C(=O)N[C@@H](Cc1c[nH]c2ccccc12)C(=O)N[C@@H](CC(=O)O)C(=O)N[C@@H](CC(C)C)C(=O)N[C@@H](CCSC)C(=O)N[C@H](CCCCN)C(=O)O)[C@@H](C)O (H-DITWDQLWDLM[dK]-OH)
425	CCCC[C@H](NC(=O)[C@H](CCCC)NC(=O)[C@H](CC(N)=O)NC(=O)[C@H](Cc1c[nH]c2ccccc12)NC(=O)[C@H](CC(C)C)NC(=O)[C@H](CCC(N)=O)NC(=O)[C@H](C)NC(=O)[C@H](Cc1c[nH]c2ccccc12)NC(=O)[C@@H](NC(=O)[C@@H](NC(=O)[C@@H](N)CC(=O)O)[C@@H](C)CC)[C@@H](C)O)C(=O)N[C@@H](CC(N)=O)C(=O)O (H-DITWAQLWN[Nle][Nle]N-OH)
42	CCCC[C@H](NC(=O)[C@H](CC(C)C)NC(=O)[C@H](CC(=O)O)NC(=O)[C@H](Cc1c[nH]c2ccccc12)NC(=O)[C@H](CC(C)C)NC(=O)[C@H](CCC(N)=O)NC(=O)[C@H](CC(=O)O)NC(=O)[C@H](Cc1c[nH]c2ccccc12)NC(=O)[C@@H](NC(=O)[C@@H](NC(=O)[C@H](CC(=O)O)NC(=O)CNC(=O)[C@@H](N)CC(=O)O)[C@@H](C)CC)[C@@H](C)O)C(=O)N[C@@H](CCCCN)C(=O)O (H-DGDITWDQLWDL[Nle]K-OH)
16	DYSWHDLWEMMS
12	QITWAQLWNMMK
7	DITWDELWKIMN
6	DYTWFELWDMMQ
4	DGDITWDQLWDLMK

Same assay, conditions: inhibits 50% of binding of radiolabeled standard to E-selectin

IC50 [nM]	Compound
11	ITWDQLWDLMK
12000	TWDQLWDLMK
